From patent EP2739618B1, “QUINAZOLINE COMPOUNDS AS SERINE/THREONINE KINASE INHIBITORS” (Array Biopharma, Inc., priority 2011, dated 2013)

Biological target: T1, human ERK-2 (Mitogen Activated Kinase 1) (Homo sapiens, UniProt P28482)
T1 construct: N-terminal 6-His fusion protein in E. coli and corresponding to aa 8-360; 6-His (N); made in house; host or cells: E. coli
Test: ERK-2 Enzymatic Assay
Format: biochemical
Details: TABLE I; 5nM ERK-2 enzyme, 25µM ATP, S/T17 peptide substrate; single assay or mean of multiple assays
Description: Compounds were tested in an enzymatic assay using human ERK-2 (Mitogen Activated Kinase 1), recombinantly expressed as an N-terminal 6-His fusion protein in E. coli and corresponding to aa 8-360. The substrate used was the fluorescent Omnia peptide S/T17 (Invitrogen of Carlsbad, CA; Cat. KNZ1171C). Test compounds were diluted in DMSO in 3-fold serial dilutions at 100x final concentrations. […] The assay was run at ambient temperature in a white 384-well polypropylene plate (Nunc, Inc of Naperville, IL; Cat. 267462) collecting data every 50 seconds for approximately 30 minutes on an Envision plate reader (PerkinElmer, Inc. of Waltham, MA); Excitation 340 nm/Emission 495 nm. The data collected from each well was fit to a straight line and the resulting rates were used to calculate percent of control. Percent of control was plotted against compound concentration and IC50 values were determined using a four-parameter fit. Representative data is in TABLE I and TABLE II. The reported IC50 may be from a single assay or the mean of multiple assays.

T1 sequence (P28482 8-360): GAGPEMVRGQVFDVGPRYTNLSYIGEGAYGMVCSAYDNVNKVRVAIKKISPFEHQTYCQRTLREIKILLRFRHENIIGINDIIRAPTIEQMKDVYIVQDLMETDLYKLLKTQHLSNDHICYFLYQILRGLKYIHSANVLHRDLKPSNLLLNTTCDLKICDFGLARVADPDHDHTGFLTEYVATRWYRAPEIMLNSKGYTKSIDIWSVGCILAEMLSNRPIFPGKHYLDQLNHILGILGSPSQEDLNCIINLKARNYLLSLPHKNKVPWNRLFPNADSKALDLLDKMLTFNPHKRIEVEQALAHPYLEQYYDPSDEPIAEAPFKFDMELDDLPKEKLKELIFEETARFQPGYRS

Compound: 2-(tetrahydro-pyran-4-ylamino)-quinazoline-7-carboxylic acid [(R)-(4-cyano-3-fluoro-phenyl)-(1-methyl-1H-pyrazol-4-yl)-methyl]-amide [Compound I-45]
- IC50: 22 nM

Compound: O=C(N[C@H](c1ccc(C(F)(F)F)c(F)c1)[C@@H]1CCCN1)c1ccc2cnc(NC3CCOCC3)nc2c1 (stereo in doubt) [Compound I-7, 2-(tetrahydropyran-4-ylamino)-quinazoline-7-carboxylic acid [(S)-(3-fluoro-4-trifluoromethyl-phenyl)-(R)-pyrrolidin-2-yl-methyl]-amide]
- IC50: 1.8 nM

Compound: O=C(N[C@H](c1ccc(F)c(Cl)c1)[C@@H]1CCNC1)c1ccc2cnc(NC3CCOCC3)nc2c1 (stereo in doubt) [Compound I-9, 2-(tetrahydropyran-4-ylamino)-quinazoline-7-carboxylic acid [(R)-(3-chloro-4-fluoro-phenyl)-(S)-pyrrolidin-3-yl-methyl]-amide]
- IC50: 6.7 nM

Compound: O=C(N[C@@H](c1ccc(F)c(Cl)c1)[C@H]1CCNC1)c1ccc2cnc(NC3CCOCC3)nc2c1 (stereo in doubt) [Compound I-11, 2-(tetrahydropyran-4-ylamino)-quinazoline-7-carboxylic acid [(S)-(3-chloro-4-fluoro-phenyl)-(R)-pyrrolidin-3-yl-methyl]-amide]
- IC50: 6.4 nM

Compound: O=C(N[C@H](c1ccc(Cl)c(F)c1)[C@@H]1CCCN1)c1ccc2cnc(NC3CCOCC3)nc2c1 (stereo in doubt) [Compound I-23, 2-(tetrahydropyran-4-ylamino)-quinazoline-7-carboxylic acid [(S)-(4-chloro-3-fluoro-phenyl)-(R)-pyrrolidin-2-yl-methyl]-amide]
- IC50: 2.3 nM

Compound: COc1ccc([C@@H](NC(=O)c2ccc3cnc(NC4CCOCC4)nc3c2)[C@@H]2CCCN2)cc1F (stereo in doubt) [Compound I-24, 2-(tetrahydropyran-4-ylamino)-quinazoline-7-carboxylic acid [(S)-(3-fluoro-4-methoxy-phenyl)-(R)-pyrrolidin-2-yl-methyl]-amide]
- IC50: 8.2 nM

Compound: COc1ccc([C@@H](NC(=O)c2cc(F)c3cnc(NC4CCOCC4)nc3c2)[C@@H]2CCCN2)cc1F (stereo in doubt) [Compound I-25, 5-fluoro-2-(tetrahydropyran-4-ylamino)-quinazoline-7-carboxylic acid [(S)-(3-fluoro-4-methoxy-phenyl)-(R)-pyrrolidin-2-yl-methyl]-amide]
- IC50: 9 nM

Compound: COc1ccc([C@@H](NC(=O)c2ccc3cnc(N[C@H](C)C4CC4)nc3c2)[C@@H]2CCCN2)cc1F (stereo in doubt) [Compound I-26, 2-((R)-1-cyclopropyl-ethylamino)-quinazoline-7-carboxylic acid [(S)-(3-fluoro-4-methoxy-phenyl)-(R)-pyrrolidin-2-yl-methyl]-amide]
- IC50: 2 nM

Compound: Cn1cc([C@H](NC(=O)c2ccc3cnc(NC4CCOCC4)nc3c2)c2ccc(C#N)c(Cl)c2)cn1 (stereo in doubt) [Compound I-48, (R)-N-((3-chloro-4-cyanophenyl)(1-methyl-1H-pyrazol-4-yl)methyl)-2-(tetrahydro-2H-pyran-4-ylamino)quinazoline-7-carboxamide]
- IC50: 1.1 nM

Compound: Cn1cc([C@@H](NC(=O)c2ccc3cnc(NC4CCOCC4)nc3c2)c2ccc(C#N)c(Cl)c2)cn1 (stereo in doubt) [Compound I-50, (S)-N-((3-chloro-4-cyanophenyl)(1-methyl-1H-pyrazol-4-yl)methyl)-2-(tetrahydro-2H-pyran-4-ylamino)quinazoline-7-carboxamide]
- IC50: 25 nM

Compound: COc1ccc([C@H](NC(=O)c2cc(F)c3cnc(N[C@@H]4CCOC4)nc3c2)c2cnn(C)c2)cc1F (stereo in doubt) [Compound I-62, 5-Fluoro-N-((S)-(3-fluoro-4-methoxyphenyl)(1-methyl-1H-pyrazol-4-yl)methyl)-2-((R)-tetrahydrofuran-3-ylamino)quinazoline-7-carboxamide]
- IC50: 4 nM

Compound: Cn1ccc(C(NC(=O)c2ccc3cnc(NC4CCOCC4)nc3c2)c2ccc(Cl)c(F)c2)n1 (stereo not drawn) [Compound I-4, 2-(tetrahydropyran-4-ylamino)-quinazoline-7-carboxylic acid [(4-chloro-3-fluoro-phenyl)-(1-methyl-1H-pyrazol-3-yl)-methyl]-amide]
- IC50: 5 nM

Compound: O=C(N[C@@H](c1ccc(F)c(Cl)c1)[C@@H]1CCNC1)c1ccc2cnc(NC3CCOCC3)nc2c1 [Compound I-8, 2-(tetrahydropyran-4-ylamino)-quinazoline-7-carboxylic acid [(R)-(3-chloro-4-fluoro-phenyl)-(R)-pyrrolidin-3-yl-methyl]-amide]
- IC50: 6.7 nM

Compound: O=C(N[C@H](c1ccc(F)c(Cl)c1)[C@H]1CCNC1)c1ccc2cnc(NC3CCOCC3)nc2c1 [Compound I-10, 2-(tetrahydropyran-4-ylamino)-quinazoline-7-carboxylic acid [(S)-(3-chloro-4-fluoro-phenyl)-(S)-pyrrolidin-3-yl-methyl]-amide]
- IC50: 5.4 nM

Compound: CN1CCC[C@@H]1[C@@H](NC(=O)c1ccc2cnc(NC3CCOCC3)nc2c1)c1ccc(C(F)(F)F)c(F)c1 [Compound I-17, 2-(Tetrahydropyran-4-ylamino)-quinazoline-7-carboxylic acid [(S)-(3-fluoro-4-trifluoromethyl-phenyl)-((R)-1-methyl-pyrrolidin-2-yl)-methyl]-amide]
- IC50: 2.8 nM

Compound: CCn1ccc([C@H](NC(=O)c2ccc3cnc(NC4CCOCC4)nc3c2)c2ccc(Cl)c(F)c2)n1 [Compound I-18, 2-(tetrahydropyran-4-ylamino)-quinazoline-7-carboxylic acid [(R)-(4-chloro-3-fluoro-phenyl)-(1-ethyl-1H-pyrazol-3-yl)-methyl]-amide]
- IC50: 12.8 nM

Compound: Cn1ccc([C@@H](NC(=O)c2ccc3cnc(NC4CCOCC4)nc3c2)c2ccc(Cl)c(F)c2)n1 [Compound I-20, 2-(tetrahydropyran-4-ylamino)-quinazoline-7-carboxylic acid [(S)-(4-chloro-3-fluoro-phenyl)-(1-methyl-1H-pyrazol-3-yl)-methyl]-amide]
- IC50: 2 nM

Compound: Cn1ccc([C@H](NC(=O)c2ccc3cnc(NC4CCOCC4)nc3c2)c2ccc(Cl)c(F)c2)n1 [Compound I-21, 2-(tetrahydropyran-4-ylamino)-quinazoline-7-carboxylic acid [(R)-(4-chloro-3-fluoro-phenyl)-(1-methyl-1H-pyrazol-3-yl)-methyl]-amide]
- IC50: 69 nM

Compound: Cn1cc([C@@H](NC(=O)c2ccc3cnc(N[C@@H]4CCOC[C@@H]4F)nc3c2)c2ccc(Cl)c(F)c2)cn1 [Compound I-27, 2-((3R,4R)-3-fluoro-tetrahydropyran-4-ylamino)-quinazoline-7-carboxylic acid [(S)-(4-chloro-3-fluoro-phenyl)-(1-methyl-1H-pyrazol-4-yl)-methyl]-amide]
- IC50: 15.8 nM

Compound: Cn1cc([C@@H](NC(=O)c2ccc3cnc(N[C@H]4CCOC[C@@H]4F)nc3c2)c2ccc(Cl)c(F)c2)cn1 [Compound I-29, 2-((3R,4S)-3-fluoro-tetrahydropyran-4-ylamino)-quinazoline-7-carboxylic acid [(S)-(4-chloro-3-fluoro-phenyl)-(1-methyl-1H-pyrazol-4-yl)-methyl]-amide]
- IC50: 3.8 nM

Compound: Cn1cc([C@@H](NC(=O)c2ccc3cnc(N[C@@H]4CCOC[C@H]4F)nc3c2)c2ccc(Cl)c(F)c2)cn1 [Compound I-30, 2-((3S,4R)-3-fluoro-tetrahydropyran-4-ylamino)-quinazoline-7-carboxylic acid [(S)-(4-chloro-3-fluoro-phenyl)-(1-methyl-1H-pyrazol-4-yl)-methyl]-amide]
- IC50: 2.1 nM

Compound: COc1ccc([C@H](NC(=O)c2ccc3cnc(NC4CCOCC4)nc3c2)[C@H]2C[C@H](F)CN2)cc1F [Compound I-31, 2-(tetrahydropyran-4-ylamino)-quinazoline-7-carboxylic acid [(S)-(3-fluoro-4-methoxy-phenyl)-((2R,4S)-4-fluoro-pyrrolidin-2-yl)-methyl]-amide]
- IC50: 1.7 nM

Compound: COc1ccc([C@H](NC(=O)c2ccc3cnc(NC4CCOCC4)nc3c2)c2cnn(C)c2)cc1F [Compound I-32, 2-(tetrahydropyran-4-ylamino)-quinazoline-7-carboxylic acid [(S)-(3-fluoro-4-methoxy-phenyl)-(1-methyl-1H-pyrazol-4-yl)-methyl]-amide]
- IC50: 1.1 nM

Compound: COc1ccc([C@H](NC(=O)c2cc(F)c3cnc(NC4CCOCC4)nc3c2)c2cnn(C)c2)cc1F [Compound I-33, 5-fluoro-2-(tetrahydropyran-4-ylamino)-quinazoline-7-carboxylic acid [(S)-(3-fluoro-4-methoxy-phenyl)-(1-methyl-1H-pyrazol-4-yl)-methyl] -amide]
- IC50: 1.5 nM

Compound: O=C(N[C@@H](c1ccc(F)c(Cl)c1)[C@]1(F)CCNC1)c1ccc2cnc(NC3CCOCC3)nc2c1 [Compound I-36]
- IC50: 1.6 nM

Compound: O=C(N[C@H](c1ccc(F)c(Cl)c1)[C@@]1(F)CCNC1)c1ccc2cnc(NC3CCOCC3)nc2c1 [Compound I-37]
- IC50: 73.6 nM

Compound: O=C(N[C@H](c1ccc(F)c(Cl)c1)[C@]1(F)CCNC1)c1ccc2cnc(NC3CCOCC3)nc2c1 [Compound I-38]
- IC50: 65.4 nM
